Laboratory results as given in BindingDB's records for patent US20240043470 (Cornell University, 2024).

Columns and labels:
[1] = molecular target: T1, Proteasome subunit beta type-8 (Homo sapiens, UniProt P28062); experiment: IC50 Determination
T1 sequence (P28062 whole entry): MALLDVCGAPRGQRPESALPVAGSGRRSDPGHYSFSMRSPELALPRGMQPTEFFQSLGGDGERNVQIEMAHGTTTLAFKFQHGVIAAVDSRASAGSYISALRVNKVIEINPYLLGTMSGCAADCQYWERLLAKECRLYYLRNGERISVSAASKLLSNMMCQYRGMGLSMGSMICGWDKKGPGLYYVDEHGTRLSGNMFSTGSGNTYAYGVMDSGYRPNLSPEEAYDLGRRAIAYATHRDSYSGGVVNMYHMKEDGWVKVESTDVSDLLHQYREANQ

[2] = molecular target: T2, Proteasome subunit beta type-5 (Homo sapiens, UniProt P28074); experiment: IC50 Determination
T2 sequence (P28074 whole entry): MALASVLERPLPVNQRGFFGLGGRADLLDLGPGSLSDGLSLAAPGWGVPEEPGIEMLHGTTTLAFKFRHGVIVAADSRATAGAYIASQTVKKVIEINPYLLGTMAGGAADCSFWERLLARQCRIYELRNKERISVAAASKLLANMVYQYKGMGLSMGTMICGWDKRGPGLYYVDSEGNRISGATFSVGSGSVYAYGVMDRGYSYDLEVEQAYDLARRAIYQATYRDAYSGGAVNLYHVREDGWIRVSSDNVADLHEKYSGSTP

SMILES	IC50 [1] [µM]	IC50 [2] [µM]
CC(=O)N[C@H]1Cc2cccc(c2)Oc2ccc(cc2)C[C@@H](C(=O)NCc2ccccc2F)NC(=O)[C@H](CC(=O)N2CCC[C@@H]2c2ccccc2)NC1=O [US20240043470, Compound 2-04]	9.1	30.7
CC(=O)NC1Cc2cccc(c2)Oc2ccc(cc2)CC(C(=O)NCc2ccccc2F)NC(=O)C(CC(=O)N2CCC[C@@H]2c2ccccc2)NC1=O (stereo partly specified) [US20240043470, Compound 2-05]	35.9	88.4
O=C(N[C@H]1Cc2cccc(c2)Oc2ccc(cc2)C[C@@H](C(=O)NCc2ccccc2F)NC(=O)[C@H](CC(=O)N2CCC[C@@H]2c2ccccc2)NC1=O)c1ccccc1 [US20240043470, Compound 2-06]	19.3	
O=C(NC1Cc2cccc(c2)Oc2ccc(cc2)CC(C(=O)NCc2ccccc2F)NC(=O)C(CC(=O)N2CCC[C@@H]2c2ccccc2)NC1=O)c1ccccc1 (stereo partly specified) [US20240043470, Compound 2-07]	26.8	> 100
CC(=O)N[C@H]1CCCCOc2cccc(c2)C[C@@H](C(=O)NCC(F)(F)F)NC(=O)[C@H](CCc2ccccc2)NC1=O [US20240043470, Compound 3-03]		11.9
O=C1CCc2cccc(c2)OCCCC[C@@H](C(=O)NCc2ccccc2F)NC(=O)[C@H](CC(=O)N2CCC[C@@H]2c2ccccc2)N1 [US20240043470, Compound 3-18]	3	44.3
O=C1N[C@@H](CC(=O)N2CCCC2)C(=O)N[C@H](C(=O)NCc2cccc3ccccc23)CCCCCCCCC[C@H]1Cc1ccccc1 [US20240043470, Compound 4-03]	3.52	
